The values that follow come from US11267802B2 (BEBETTER MED INC., priority 2015, dated 2022).

In general, melting point refers to the temperature, or range, at which the solid turns liquid. The AUC(0-inf) is the area under the concentration-time curve extrapolated to infinity. A higher AUC(0-inf) goes with more exposure. Broadly, the Cmax is the highest concentration seen after dosing. The term Tmax denotes the time from dosing to the highest level. One may read the half-life as the time needed for the level to fall by half in the phase considered. The low end stands for rapid decline, the high end for slow decline.

Bounds are passed on as bounds.

One series concerns LOVO. Kind of series: Inhibition assay on tumor cell proliferation (CellTiter-Glo), LOVO. The class given is cell-based, Human. As to conditions: Homo sapiens; LOVO (wild-type EGFR), 72 hours, 10% bovine serum. The procedure, abridged:
(§1)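 Viability from ATP content by CellTiter-Glo luminescence; inhibition normalised to DMSO (max) and medium-only (min) wells, IC50 by sigmoidal dose-response fitting. LOVO and H358 carry wild-type EGFR; HCC827 has exon 19 deletion.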
(In general: In ATP-based viability assays light output follows the ATP content of the culture.)

Another series concerns the target T1, EGFR T790M/L858R (Homo sapiens, UniProt P00533, L858R/T790M).
T1 construct: purchased Invitrogen PR8911A
Put plainly: Mutant EGFR T790M/L858R activity inhibition assay (Caliper mobility shift). In kind it is biochemical. As to conditions: read-out: enzyme activity inhibition (IC50) EGFR T790M/L858R. The procedure, abridged:
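Compound added in 10% DMSO at 5-fold final concentration; substrate conversion read by Caliper mobility shift. Inhibition = (max−conversion)/(max−min)×100, with max from DMSO no-compound wells and min from no-enzyme wells; IC50 from fitted concentration–response curve.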

A further series concerns H1975. Put plainly: Inhibition assay on tumor cell proliferation (CellTiter-Glo), H1975. The settings on record: Homo sapiens, NCI-H1975; H1975 (L858R and T790M EGFR double mutation), 72 hours, 10% bovine serum. In kind it is cell-based, Human.
A further series deals with HCC827. Kind of series: Inhibition assay on tumor cell proliferation (CellTiter-Glo), HCC827. The class given is cell-based. As to conditions: Homo sapiens; HCC827 (ex19del), 72 hours, 10% bovine serum. The method, then:
By using a CellTiter-Glo luminescence cell viability test kit (Promega, # G7572), the content of adenosine triphosphate (ATP) was determined to assess the cell viability.
Human colon cancer cell line LOVO and human non-small-cell lung cancer H358 express wild-type EGFR. Human non-small-cell lung cancer cell line HCC827 carries deletion mutation in exon 19 (ex19del). Those cell lines are purchased from Shanghai Fudan IBS Cell Resource Center and American Tissue Culture Collection (ATCC).
The assay procedure is as follows. The cells in a cell culture plate were digested with a pancreatic enzyme, re-suspended in a DPBS culture medium, and had the cell density counted by Scepter automated cytometer (Millipore # PHCC00000). The cells were diluted to a solution of 44,000 cells per ml. The cell solution with adjusted density was added to the cell assay plate at 90 microliters per well. The plate was placed in an incubator with 5% CO2 at 37° C. for 24 hours of incubation, and then added with different concentrations of subject compounds. The cells were incubated for 72 hours with the compounds in presence of 10% bovine serum. The content of ATP was determined by a CellTiter-Glo® Luminescent Cell Viability Assay kit (see the manufacturer's instruction for details) to evaluate cell-growth inhibition.
Briefly, 30 μl of CellTiter-Glo® reagent was added to each well, and then shaken for 10 minutes to induce cell lysis. The fluorescent signal was detected and recorded by Fluoroskan Ascent FL (Thermo). The max signal value was obtained from the cells treated by dimethyl sulfoxide for 72 hours. The min signal value was obtained from the medium alone (the number of the cells was 0). Inhibitory rate %=(max signal value−compound signal value)/(max signal value−min signal value)×100. The data was processed by GraphPad Prism V5.0 software (GraphPad Software, San Diego, Calif.). Sigmoidal dose-response curve fitting was performed to calculate the IC50 value.

Another series has as its system H358. Put plainly: Inhibition assay on tumor cell proliferation (CellTiter-Glo), H358. In kind it is cell-based, Human. As to conditions: Homo sapiens, NCI-H358; H358 (wild-type EGFR), 72 hours, 10% bovine serum. The method, boiled down: as §1
The subject of series [1] is H1975 xenograft tumor. Put plainly: Potency assay of tumor model, 16 consecutive days. The class given is in vivo, Balb/C nude mice. The settings on record: oral. The protocol:
(§2) Balb/C nude mice were purchased from Beijing Vital River Laboratory Animal Technology Co., Ltd., and housed in SPF animal room. The human non-small-cell lung cancer cell line H1975 in a culture dish was collected by trypsin-EDTA (0.25% trypsin, 1 mM EDTA), and then washed with a serum-free PBS solution. Lastly, the cells were implanted after diluted in a serum-free medium. Only the single cell suspension with a survival rate over 90% (Trypan blue rejection) can be used for injection. 5 million cells suspended in a 0.1 ml serum-free culture were injected into the front right flanking subcutaneous region of each mouse by using a 1 ml syringe and a 25G syringe needle, and the blood vessel was carefully avoided. The tumor size was measured in about one week after implantation. A caliper rule was used to measure the tumor size. The tumor volume was calculated by the following formula: tumor volume=(length×width^2)/2.
This experiment studied the inhibition of tumor growth in H1975 xenograft tumor model by the compounds 20, 50, 91, and 118. When the mean volume of H1975 tumor reached about 260 mm^3, the animals were divided into 5 oral administration groups, that is, excipient control group and groups of oral administration of compound 20, compound 50, compound 91, and compound 118, respectively (n=8/group). These compounds were dissolved in 30% sulfobutylated beta-cyclodextrin (SBE-β-CD) and 1N HCl (pH 3-4). […]

Series [2] in a line: Pharmacokinetics in rats after oral administration. In kind it is in vivo, SD rats. The method, then: (§3) Male SD rats weighing 250-300 g, or male beagles weighing 9-10 kg, were fasted overnight before the experiment. The object compounds were dissolved in 30% sulfobutylated beta-cyclodextrin (SBE-β-CD), and orally administrated to the rats at a dose of 20 mg/kg or to the beagles at a dose of 5 mg/kg. Blood samples were taken at 15 minutes, 30 minutes, 1 hour, 2 hours, 3 hours, 4 hours, 6 hours, 8 hours and 24 hours after administration. 0.3 ml of blood was collected at every time point, placed in a centrifuge tube containing K2-EDTA (ethylenediamine tetraacetic acid dipotassium) and centrifuged (2,000 g, 10 minutes, 4° C.) to collect plasma, which was then stored in an ultra cold storage freezer at −80° C. 50 μL of plasma sample was mixed with 5 μL of internal standard (IS), and then extracted with ethyl acetate. After vacuum drying, the residue was re-dissolved in acetonitrile. The sample was filtered and injected into LC-MS/MS for analysis.

For series [3], the system named is H1975 xenograft tumor. Kind of series: Potency assay of tumor model, dose-effect relationship, 22 consecutive days. The class given is in vivo, Balb/C nude mice. The settings on record: for Tumor inhibition T/C value (%) / Weight change (%): po, qd. The method, then: as §2
Further assay was performed to assess the dose-effect relationship of the inhibition of H1975 transplantation tumor growth by the compounds 51 and 91. […] These compounds were dissolved in 30% sulfobutylated beta-cyclodextrin (SBE-β-CD) and 1N HCl (pH 3-4), respectively. […]

A short description of series [4]: Pharmacokinetics in beagles after oral administration. The settings on record: male, beagle, dog, 5 mg/kg, plasma. In kind it is in vivo. The protocol:
as §3

Setting [5] is: male, SD, rat, 20 mg/kg, plasma.

T1 sequence (P00533 25-1210 T790M/L858R): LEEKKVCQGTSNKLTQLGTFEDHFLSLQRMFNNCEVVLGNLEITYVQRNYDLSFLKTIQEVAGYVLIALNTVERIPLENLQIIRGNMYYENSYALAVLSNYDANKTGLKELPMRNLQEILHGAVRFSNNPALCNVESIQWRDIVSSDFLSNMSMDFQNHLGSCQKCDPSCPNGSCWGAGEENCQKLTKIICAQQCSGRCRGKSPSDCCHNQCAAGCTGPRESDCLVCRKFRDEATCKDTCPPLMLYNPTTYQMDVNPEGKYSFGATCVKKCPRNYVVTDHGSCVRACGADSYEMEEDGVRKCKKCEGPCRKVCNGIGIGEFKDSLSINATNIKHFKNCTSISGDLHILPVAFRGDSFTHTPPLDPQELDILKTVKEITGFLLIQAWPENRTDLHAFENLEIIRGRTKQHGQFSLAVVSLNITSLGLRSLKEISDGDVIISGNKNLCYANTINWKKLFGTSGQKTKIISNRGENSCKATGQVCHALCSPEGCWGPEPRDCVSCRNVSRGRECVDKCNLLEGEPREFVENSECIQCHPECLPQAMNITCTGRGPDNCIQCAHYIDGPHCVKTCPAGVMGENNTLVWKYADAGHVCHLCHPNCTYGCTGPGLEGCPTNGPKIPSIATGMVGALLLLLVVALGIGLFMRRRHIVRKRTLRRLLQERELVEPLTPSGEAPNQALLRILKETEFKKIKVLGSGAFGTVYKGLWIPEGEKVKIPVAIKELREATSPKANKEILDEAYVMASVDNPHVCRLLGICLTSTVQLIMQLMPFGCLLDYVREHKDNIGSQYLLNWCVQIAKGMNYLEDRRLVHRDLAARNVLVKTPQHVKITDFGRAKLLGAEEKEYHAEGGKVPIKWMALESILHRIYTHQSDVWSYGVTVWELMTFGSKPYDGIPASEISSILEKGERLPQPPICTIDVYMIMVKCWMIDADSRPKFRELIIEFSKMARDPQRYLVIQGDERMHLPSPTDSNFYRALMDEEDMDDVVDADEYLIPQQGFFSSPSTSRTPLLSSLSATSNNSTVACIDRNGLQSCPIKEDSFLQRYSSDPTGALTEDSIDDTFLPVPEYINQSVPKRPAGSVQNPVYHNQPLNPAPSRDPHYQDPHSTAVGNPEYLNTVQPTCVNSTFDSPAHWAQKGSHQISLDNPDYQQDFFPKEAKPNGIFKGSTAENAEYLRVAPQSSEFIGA

`C=CC(=O)Nc1cc(Nc2nccc(-n3ccc4cc(CO)ccc43)n2)c(OC)cc1N(C)CCN(C)C` [Compound 39, N-(2-((2-(dimethylamino)ethyl)(methyl)amino)-5-((4-(5-(hydroxymethyl)-1H-indol-1-yl)pyrimidin-2-yl)amino)-4-methoxyphenyl)acrylamide] came in with a melting point of 67 to 68 °C. This compound came in with an IC50 in the series on LOVO of more than 1000 nM. In addition, the IC50 on EGFR T790M/L858R is less than 1 nM. The compound also showed an IC50 in the series on H1975 of less than 10 nM. For the same compound, in the series with HCC827, the IC50 was less than 10 nM. In the series on H358, this compound had an IC50 of 100 to 1000 nM.

Take `C=CC(=O)Nc1cccc(Nc2nc(Nc3ccc(N4CCN(C(C)=O)CC4)cc3OC)ncc2C(F)(F)F)c1` [CO-1686, Rociletinib, reference compound]: the IC50 with LOVO is more than 1000 nM; in the series on H1975, 10 to 50 nM; in the series with HCC827, 100 to 1000 nM; in the series on H358, 100 to 1000 nM.

As to `C=CC(=O)Nc1cc(Nc2nccc(-n3c(=O)n(C)c4cc(F)ccc43)n2)c(OC)cc1N(C)CCN(C)C` [Compound 50, N-(2-((2-(dimethylamino)ethyl)(methyl)amino)-5-((4-(5-fluoro-3-methyl-2-oxo-2,3-dihydro-1H-benzo[d]imidazol-1-yl)pyrimidin-2-yl)amino)-4-methoxyphenyl)acrylamide], the melting point fell in the range of 208 to 210 °C. For the same compound, the IC50 at EGFR T790M/L858R was less than 1 nM. Also, the IC50 in the series on H1975 is less than 10 nM. For the same compound, the T/C value in the series on H1975 xenograft tumor [1] (30 mg/kg qd as printed, 16 days after administration) is on record as −97%. For the same compound, the “inhibition of growth of H1975 xenograft tumor (in words)” value in the series with H1975 xenograft tumor [1] (30 mg/kg qd, 16 days) was “tumor regression”. In addition, the “absorption / blood exposure after oral administration (in words)” value in series [2] is on record as “well absorbed, with high blood exposure”. In series [2] (setting [5]), the AUC(0-inf) was determined as 598 ng·h/mL, the Cmax stood at 173 ng/mL, the Tmax worked out at 1 h and the half-life is 186 min. Further, the AUC(0-t) in [2] (male, SD, rat, 20 mg/kg, plasma, read-out: AUC0-24) came out at 561 ng·h/mL. In the series with H1975 xenograft tumor [3] (10 mg/kg, 22 consecutive days), the “Tumor inhibition T/C value (%)” value is recorded as −65% and the “Weight change (%)” value was found to be 0.0%. Further, in the series on H1975 xenograft tumor [3] (20 mg/kg, 22 consecutive days), the “Tumor inhibition T/C value (%)” value is recorded as −95% and the “Weight change (%)” value is listed as −2.0%. Besides, in the series with H1975 xenograft tumor [3] (40 mg/kg, 22 consecutive days), the “Tumor inhibition T/C value (%)” value is recorded as −100% and the “Weight change (%)” value is reported as −4.4%. The “tumor outcome (in words)” value in the series with H1975 xenograft tumor [3] (high dose (40 mg/kg), 22 consecutive days) is listed as “the tumor disappeared completely”. Moreover, the “dose dependence of inhibition of H1975 xenograft tumor growth (in words)” value with H1975 xenograft tumor [3] (oral, 10, 20 and 40 mg/kg) is recorded as “dose dependently inhibited”. In addition, in series [4], the AUC(0-inf) was determined as 1470 ng·h/mL, the Cmax turned out to be 428 ng/mL, the Tmax amounted to 1 h and the half-life was 87 min. Moreover, in [4] (read-out: AUC0-24), the AUC(0-t) is 1420 ng·h/mL. The compound also came in with an IC50 with H358 of 100 to 1000 nM.

For `C=CC(=O)Nc1cc(Nc2nccc(-c3cn(C)c4ccccc34)n2)c(OC)cc1N(C)CCN(C)C` [AZD9291, Osimertinib, reference compound], the IC50 in the series with LOVO is more than 1000 nM; in the series with H1975, less than 10 nM; in the series with HCC827 it was less than 10 nM; in the series with H358, 100 to 1000 nM. The “Tumor inhibition T/C value (%)” value with H1975 xenograft tumor [3] (25 mg/kg, 22 consecutive days) is −100%. Further, the “Weight change (%)” value in the series on H1975 xenograft tumor [3] (25 mg/kg, 22 consecutive days) is −7.2%.
